According to patent US8389523B2, “Substituted quinoxaline and an agrochemical composition thereof” (Kumiai Chemical Industry Co., Ltd., priority 2007, dated 2013):

What was measured:
Format in all cases: in vivo
Parameters in all cases: scale not given here
[1] = system: Abutilon theophrasti medicus; experiment: Herbicidal effects in upland field foliar treatment (Test Example 3); conditions: criteria of Table 138; for herbicidal effects on Abutilon theophrasti medicus: 1000 g of the active ingredient per hectare, 14th day after the treatment, wettable powder; for herbicidal effect (index) on Abutilon theophrasti medicus: 1000 g active ingredient per hectare, 14th day after treatment
How it was run: (§1)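 Post-emergence foliar treatment: two-week-old seedlings from upland field soil received 1000 g a.i./ha (wettable powder, 1000 L water/ha), then returned to the greenhouse for scoring 14 days later.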

[2] = system: Echinochloa crus-galli (L.) P. Beauv. var. crus-galli; experiment: as above; conditions: criteria of Table 138; for herbicidal effects on Echinochloa crus-galli (L.) P. Beauv. var. crus-galli: 1000 g of the active ingredient per hectare, 14th day after the treatment, wettable powder; for herbicidal effect (index) on Echinochloa crus-galli (L.) P. Beauv. var. crus-galli: 1000 g active ingredient per hectare, 14th day after treatment
How it was run: as §1

[3] = system: Amaranthus viridis L.; experiment: as above; conditions: criteria of Table 138; for herbicidal effects on Amaranthus viridis L.: 1000 g of the active ingredient per hectare, 14th day after the treatment, wettable powder; for herbicidal effect (index) on Amaranthus viridis L.: 1000 g active ingredient per hectare, 14th day after treatment
How it was run: as §1

[4] = system: Scirpus juncoides Roxb. var. ohwianus. T. Koyama; experiment: Herbicidal effects in paddy field soil treatment (Test Example 1); conditions: for Herbicidal effects index, Scirpus juncoides Roxb. var. ohwianus. T. Koyama: paddy field soil treatment, 1000 g of the active ingredient per hectare, wettable powder added dropwise on water surface, 21st day after treatment
How it was run: (§2)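 Flooded-paddy soil treatment under greenhouse conditions: a diluted wettable powder at 1000 g a.i./ha went onto the water surface one day post-sowing, with 3 cm standing water, and weed control was graded on a scoring scale 21 days after treatment.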

[5] = system: Monochoria vaginalis (Burm. f.) Presl var. plantaginea (Roxb.) Solms-Laub.; experiment: as above; conditions: for Herbicidal effects index, Monochoria vaginalis (Burm. f.) Presl var. plantaginea (Roxb.) Solms-Laub.: paddy field soil treatment, 1000 g of the active ingredient per hectare, wettable powder added dropwise on water surface, 21st day after treatment
How it was run: as §2

[6] = system: Echinochloa oryzicola Vasing; experiment: as above; conditions: for Herbicidal effects index, Echinochloa oryzicola Vasing: paddy field soil treatment, 1000 g of the active ingredient per hectare, wettable powder added dropwise on water surface, 21st day after treatment
How it was run: as §2

[7] = system: Abutilon theophrasti medicus; experiment: Herbicidal effects in upland field soil treatment (Test Example 2); conditions: 1000 g active ingredient per hectare, 21st day after treatment, criteria of Table 138
How it was run: (§3)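 Soil-applied before emergence at 1000 g a.i./ha as water-diluted wettable powder; greenhouse-grown plants rated for herbicidal damage 21 days post-treatment.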

[8] = system: Amaranthus viridis L.; experiment: as above; conditions: 1000 g active ingredient per hectare, 21st day after treatment, criteria of Table 138
How it was run: as §3

[9] = paddy field soil treatment (Test Example 1), criteria of Table 138

| Compound | herbicidal effects on Abutilon theophrasti medicus [1] | herbicidal effects on Echinochloa crus-galli (L.) P. Beauv. var. crus-galli [2] | herbicidal effects on Amaranthus viridis L. [3] | Herbicidal effects index, Scirpus juncoides Roxb. var. ohwianus. T. Koyama [4] | Herbicidal effects index, Monochoria vaginalis (Burm. f.) Presl var. plantaginea (Roxb.) Solms-Laub. [5] | Herbicidal effects index, Echinochloa oryzicola Vasing [6] | herbicidal effect (index) on Abutilon theophrasti medicus [7] | herbicidal effect (index) on Amaranthus viridis L. [8] | herbicidal effect (index) on Abutilon theophrasti medicus [1] | herbicidal effect (index) on Echinochloa crus-galli (L.) P. Beauv. var. crus-galli [2] | herbicidal effect (index) on Amaranthus viridis L. [3] | herbicidal effect (index) on Scirpus juncoides Roxb. var. ohwianus. T. Koyama [4, 9] | herbicidal effect (index) on Monochoria vaginalis (Burm. f.) Presl var. plantaginea (Roxb.) Solms-Laub. [5, 9] | herbicidal effect (index) on Echinochloa oryzicola Vasing [6, 9] |
| --- | --- | --- | --- | --- | --- | --- | --- | --- | --- | --- | --- | --- | --- | --- |
| Cc1ccc(-n2c(=O)c(C(=O)C3=C(O)CCCC3=O)nc3cccnc32)cc1 [IV-21] | 5 | 5 | 5 | 5 | 5 | 5 | 5 | 5 | – | – | – | – | – | – |
| O=C1CCCC(O)=C1C(=O)c1nc2ccccc2n(-c2ccccc2)c1=O [II-1] | – | – | – | 5 | 5 | 5 | 5 | 5 | 5 | 5 | 5 | – | – | – |
| CSc1ccc(-n2c(=O)c(C(=O)C3=C(O)CCCC3=O)nc3ccccc32)cc1 [II-122] | 4 | 5 | 5 | 5 | 5 | 5 | 5 | 5 | – | – | – | – | – | – |
| C=CCn1c(=O)c(C(=O)C2=C(O)CCCC2=O)nc2ccccc21 [Compound I-30] | – | – | – | 5 | 5 | 5 | 5 | 5 | 5 | 4 | 5 | – | – | – |
| CN1C(=O)COc2ccc(-n3c(=O)c(C(=O)C4=C(O)CCCC4=O)nc4ccccc43)cc21 [I-275] | – | – | – | 5 | 5 | 4 | 4 | 5 | 4 | 5 | 5 | – | – | – |
| O=C1CCCC(O)=C1C(=O)c1nc2ccccc2n(-c2ccsc2)c1=O [I-139] | – | – | – | 5 | 5 | 5 | 5 | 5 | 5 | 4 | 5 | – | – | – |
| CC1COc2cc(-n3c(=O)c(C(=O)C4=C(O)CCCC4=O)nc4ccccc43)ccc2O1 (stereo not shown) [II-231] | 5 | 5 | 5 | 5 | 5 | 5 | 4 | 5 | – | – | – | – | – | – |
| CC1(C)CCC(=O)C(C(=O)c2cnc3ccccc3n2)=C1O [comparative compound D, reference compound] | 4 | 0 | 1 | – | – | – | 0 | 3 | – | – | – | 2 | 4 | 1 |
